Laboratory results published in patent publication US20040009495A1, “Methods and products related to drug screening using gene expression patterns” (Whitehead Institute for Biomedical Research, priority 2001, published 2004).

How the values were obtained:
[1] = system: HL60 cells; test: Marker gene expression ratios to GAPDH in HL60 control cells (multiplex RT-PCR, direct gene dendrimer readout); format: cell-based; conditions: for Ave IL1RN/GAPDH / Ave SPP1/GAPDH / IL1RN fold increase over AML / SPP1 fold increase over AML: HL60 cells; for Ave IL1RN/GAPDH / Ave SPP1/GAPDH: highest stringency filter of 50% dilution, 1 uM ATRA or 10 nM PMA; for IL1RN fold increase over AML / SPP1 fold increase over AML: versus undifferentiated HL60 (AML)
[2] = system: HL60 cells; test: HL60 cell differentiation on exposure to inducing chemical; format: cell-based
Description: HL60 cells, provided by American Type Cell Culture (Manassas, Va.), were grown in RPMI medium 1640 with 10% fetal bovine serum (Sigma, St. Louis, Mo.) and 1% penicillin-streptomycin. For design of the model, neutrophil differentiation was stimulated with 1 uM ATRA (Sigma, St. Louis, Mo.) for 0, 24, 48, 72, and 120 hours and with 1.25% dimethyl sulfoxide (DMSO) (American Bioanalytical, Natick, Mass.) for 72 hours. Monocyte/macrophage differentiation was induced with 10 nM phorbol 12-myristate 13-acetate (PMA) (Sigma, St. Louis, Mo.) for 0, 4, 12, and 24, and 120 hours and with Vitamin D3 (1 alpha 25-dihydroxy) (Calbiochem, San Diego, Calif.) 2.5 uM for 72 hours. Differentiation was confirmed by morphological changes by light microscopy for monocyte/macrophage differentiation and by May Grunwald Giemsa stain for neutrophil differentiation.
Acute Myeloid Leukemia (AML) represents a form of cancer for which improved treatment in therapy is greatly sought. For more than 20 years, researchers have used a cell line (HL60 cell line) which closely mimics the behavior of AML and which is easily maintained in cell culture. […] The different gene expression signatures were evaluated for “in vivo authenticity” by confirming the same gene expression differences in native human neutrophils and native human monocytes compared to patient AML cells. […]

[3] = treated HL60 cells, text summary over 3 plex and 5 plex

Compound | Ave IL1RN/GAPDH ([1]; 3 plex) | Ave SPP1/GAPDH ([1]; 3 plex) | IL1RN fold increase over AML ([1]; 3 plex) | SPP1 fold increase over AML ([1]; 3 plex) | Ave IL1RN/GAPDH ([1]; 5 plex) | Ave SPP1/GAPDH ([1]; 5 plex) | IL1RN fold increase over AML ([1]; 5 plex) | SPP1 fold increase over AML ([1]; 5 plex) | IL1RN increase with respect to AML [1, 3] | SSP1 increase over AML [1, 3] | differentiation of HL60 cells upon exposure [2]
CCCCCCCCCCCCCC(=O)O[C@@H]1[C@@H](C)[C@@]2(O)[C@@H](C=C(CO)C[C@]3(O)C(=O)C(C)=C[C@@H]23)[C@@H]2C(C)(C)[C@]12OC(C)=O [PMA, Phorbol 12-myristate 13-acetate] | 2.04 | 1.17 | 84.4 fold | 55.1 fold | 0.98 | 0.55 | 40.5 fold | 25.9 fold | 40-84 fold | 25-55 fold | differentiated into monocyte/macrophage
CC1=C(/C=C/C(C)=C/C=C/C(C)=C/C(=O)O)C(C)(C)CCC1 [ATRA, all trans retinoic acid] | 0.02 | 0.03 | – | – | 0.02 | 0.02 | – | – | – | – | differentiated into neutrophils
